Laboratory results: patent US20260078348A1, “MULTIPLE MYELOMA MICROORGANOSPHERES” (Xilis, Inc., priority 2022, published 2026)

Columns and labels:
MM MOS [1] = experiment: Caspase 3/7 green dye apoptosis monitoring of drug-treated MM MOS (INCUCYTE imaging); format: cell-based, human; details: for MM MOS death (Caspase 3/7 signal): day 11 MM MOS, 5 μM lenalidomide or 2 nM bortezomib for 92 hours, vs negative control
Description: Studies were conducted to determine the effects of various MM drugs on the MM MOS. For example, day 11 MM MOS were treated with 5 μM lenalidomide or 2 nM bortezomib for 92 hours, with no medium change during the drug treatment. Caspase 3/7 green dye was included in the medium to monitor apoptosis, and fluorescence was measured.

MM MOS [2] = experiment: Live/dead dye (calcein AM / ethidium homodimer) imaging of drug-treated MM MOS; format: cell-based, human; details: for MM MOS response to treatment: 10 μM for 4 days, live/dead dye images, n=3, p<0.05 by t-test; for live/dead ratio: 10 μM, 4 days of treatment beginning on day 9 of MOS generation, compared to negative control
Description: Further studies were conducted using 10 μM carfilzomib or 10 μM selinexor treatment beginning on day 9 of MOS generation from MM patient bone marrow biopsy samples. After 4 days of treatment, live/dead dyes (calcein AM-green and ethidium homodimer-red) were added to the wells for a 30-minute incubation.

SMILES	time at which MM MOS responded after onset of treatment (MM MOS [1]; 5 μM lenalidomide, INCUCYTE images taken every 2 hours)	MM MOS death (Caspase 3/7 signal) (MM MOS [1])	MM MOS response to treatment (MM MOS [2])	live/dead ratio (MM MOS [2])
Nc1cccc2c1CN(C1CCC(=O)NC1=O)C2=O (stereo not shown) [lenalidomide]	24 h	increased		
O=C(/C=C\n1cnc(-c2cc(C(F)(F)F)cc(C(F)(F)F)c2)n1)NNc1cnccn1 [selinexor]			responded	significantly reduced
CC(C)C[C@H](NC(=O)[C@H](Cc1ccccc1)NC(=O)c1cnccn1)B(O)O [bortezomib]		not		
CC(C)C[C@H](NC(=O)[C@H](CCc1ccccc1)NC(=O)CN1CCOCC1)C(=O)N[C@@H](Cc1ccccc1)C(=O)N[C@@H](CC(C)C)C(=O)[C@@]1(C)CO1 [carfilzomib]			responded	significantly reduced
